Assay results published in patent publication US9845318B2, “Class of near infrared optical probes for biological applications” (The University of Akron, priority 2012, dated 2017).
Structures can show the parent of a compound that is named as a salt. Values belong to the molecule of their own block, whether it stands above or below them.

Columns and labels:
[1] = Determination of association constant by fluorescence titration with Zn^2+; type: binding
Protocol: (§1) The NIR emission intensity at ˜710 nm was linearly proportional to the Zn^2+ concentration (linearly dependent coefficient: R^2=0.9982) (FIGS. 18 and 19). […] The association constants K11 and K12 were determined by a nonlinear least-squares analysis of fluorescence intensity versus Zn^2+ ion concentration to be 3.21×10^5 M^−1 and 3.88×10^10 M^−2, respectively.
An approximate linear fit formula is used to calculate the single association constant Kass1 and Kass2:
[formula] where n is the number of equivalents of the added metal ions, F0 is the fluorescence intensity of the free sensor, and F1 is the fluorescence intensity in the presence of excess cation, C0 is the initial concentration of Zinhbo-5. Kass1 and Kass2 can be obtained by a linear analysis of (F1−F)(x) versus

[2] = Fluorescence response of the sensor in solution upon addition of Zn^2+; type: physicochemical
Description: Free ligand Zinhbo-5 gave only weak green fluorescence at 520 and 560 nm. The green fluorescence signal was increased gradually upon addition of Zn^2+ (FIGS. 12 and 13). In addition, a new emission peak at ˜763 nm occurred, which has a very large Stokes shift (˜285 nm). The new emission band was attributed to the keto form arising from the ESIPT process (FIGS. 14 and 15). […] This is because the substituent at the 5-position of benzoxazole unit exerts less electronic interferences to the anticipated ESIPT process (as shown in structure 5). […] The stronger ESIPT from 9 could be associated with the increased rigidity, when two ligands were assembled together via chelation with Zn^2+ cation.
as §1
All the solvents were of analytic grade. The salt used in stock solutions of metal ions were Zn(OAc)2.2H2O, Co(OAc)2.4H2O, Ni(OAc)2.4H2O, Cu(OAc)2.H2O, MgSO4, Cd(OAc)2.6H2O, Mn(OAc)2.4H2O, FeCl2. 4H2O, CaCl2, Na2SO4, Hg(OAc)2, AgNO3, Pb(OAc)2.3H2O, KNO3. Water used was ultra filter deionized and purchased from fisher. HEPES (2-[4-(2-hydroxyethyl)-1-piperazinyl]-ethanesulfonic acid) was from Fisher. NMR spectra were collected on a Varian 300 Gemini spectrometer. Mass spectrometric data were obtained on a HP1100LC/MSD mass spectrometry. UV-Vis spectra were acquired on a Hewlett-Packard 8453 diode-array spectrometer. Fluorescence spectra were obtained on a HORIBA Jobin Yvon NanoLog spectrometer. All pH measurements were made with a model RS232 meter. The fluorescence quantum yield were obtained using quinine sulfate as the standard (Φ=0.53, 0.1 M H2SO4). Cell fluorescence imaging were obtained on a Nikon Eclipse TE2000-5 fluorescence microscope, and analyzed by MetaFluor software (Universal Imaging Corp.).

Hela cells = assay: Fluorescence imaging of intracellular Zn^2+ in Hela cells; type: cell-based
Protocol: The Zinhbo-5 sensor was applied on Hela cells, in order to examine whether the probe could be useful in living systems under a confocal laser scanning microscopy. […] After three times washing with PBS buffer, the cells were incubated with ZnCl2 (10 μM) in the medium for another 30 min at 37° C., and the fluorescence in living cells was much brighter (FIG. 20, at D).
Hela cells were cultured in DEME (Invitrogen) supplemented with 10% FCS (Invitrogen). One day before imaging, cells were seeded in 24-well flat-bottomed plates. The next day, the Hela cells were incubated with 10 μM sensor Zinhbo-5 for 0.5 h at 37° C. under 5% CO2 and then washed with phosphate-buffered saline (PBS) three times before incubating with 10 μM ZnCl2 for another 0.5 h, cells were rinsed with PBS three times again, then the fluorescence imaging of intracelluar Zn2+ was observed under Nikon eclipase TE2000-5 inverted fluorescence microscopy with a 32× objective lens. The Hela cells only incubated with 10 μM Zinhbo-5 for 0.5 hour at 37° C. under 5% CO2 was as a control. For all images, the microscope settings, such as brightness, contrast, and exposure time were held constant to compare the relative intensity of intracellular Zn^2+ fluorescence.

zebrafish = assay: Imaging of Zn^2+ in developing zebrafish, probe added to fish tank water; type: in vivo
Description: The most attractive application for zinc probes is sensing Zn^2+ in living organisms. Our ability to discover the fundamental roles of Zn^2+ is dependent on the tools available to detect the Zn^2+ population/concentration in living biological systems. Zebrafish has recently become an important model organism for the study of vertebrate imaging. This is because the embryos of zebrafish are transparent, allowing for clear observation of their organs without the need for dissection. The optical transparancy of zebrafish, therefore, provides a convenient organism for detection of ions by fluorescence microscopy. […] Encouraged by the cell permeability (FIG. 20), Zinhbo-5 was thus examined in developing zebrafish of various stages by adding Zinhbo-5 to fish tank water (treatment lasted for one hour at room temperature). […] However, there were more labeling in other parts of the body in the Zn^2+ treated larvae (FIG. 22 at I). […] Herein the in vivo recognition of the zinc-rich organ in zebrafish larva could be seen with higher image quality by using Zinhbo-5. […] The in vivo results with sensor Zinhbo-5 are somewhat different in light of the previously reported data where zinc was detected using fluorescent sensors in zebrafish. In those studies, fluorescent labeling was concentrated in the heart ventricle of embryos (50 hpf), and scattered throughout the body in larvae (4-5-day old). Whereas Zinhbo-5 labeling is confined mainly to the nose and neuromasts of the lateral line system during this period.
All images show lateral views of live embryos (anterior to the left and dorsal up). The labeled cells are scattered throughout the embryo at 17 hpf (panels A and B). Panel B is a higher magnification of the mid-trunk region of the embryo shown in panel A. Arrowheads in panel B indicate several labeled cells. Zinhbo-5 labeling becomes more restricted as development proceeds. At 50 hpf, Most labeled cells are concentrated in the nose neuromasts of the lateral line system (panels C-F). Arrowheads and asterisks in panels C and D point to some neuromasts in the posterior lateral line system on this side and the other side of the body trunk, respectively. Panels E and F are higher magnifications of the head region of the labeled embryos. Embryos in panels D and F had been treated with Zn2+ before Zinhbo-5 labeling. (Abbreviations: io2, infraorbital line neuromast 2; ml1, middle line neuromast 1; n, nose; o1 and o2, otic lateral line neuromasts 1 and 2; po1, postorbital neuromast 1; so2, supraorbital line neuromast 2).
All images show lateral views (anterior to the left and dorsal up) of live zebrafish larvae. Panels A-C are low magnification images showing almost the entire fish; panels D-F show higher magnification of the head region, while panels G-J show higher magnification of the mid-trunk region of the fish. Panels A, D and G are from larvae labeled with Zinhbo-5. Panels B, E and I are from larvae that had been treated with zinc before exposed to Zinhbo-5. Panels C, F and J are from larvae that were simultaneously treated with Zinhbo-5 and TPEN. […] (Abbreviations: io1 and io3, infraorbital line neuromasts 1 and 3; so1, supraorbital line neuromast 1; ye, yolk extension. Other abbreviations are the same as in FIG. 9).

[3] = 0.1 M H2SO4; cited from earlier work

Kd (sensitivity for Zn^2+) ([1]; aqueous solution): 2.58 nM^2
new emission peak upon addition of Zn^2+ ([2]; FIGS. 12 and 13, keto form ESIPT emission): ~763 nm
fluorescence quantum yield Φfl upon addition of one equivalent Zn2+ ([2]; HEPES buffer solution with 50% EtOH, 1 equivalent Zn2+): 0.17
fluorescence quantum yield Φfl of free ligand ([2]; HEPES buffer solution with 50% EtOH, no Zn^2+): 0.081
fluorescence enhancement upon zinc binding (green emission) ([2]; aqueous solution): about 14 fold
NIR emission strength upon zinc binding, comparison ([2]; at ~763 nm, THF, excitation 480 nm (FIG. 14), Zinhbo-5 vs Zinhbo-1, 9 vs crystal 10): quite stronger NIR emission
Stokes shift of the new emission peak ([2]; peak at ~763 nm): ~285 nm
cell permeability (Hela cells; living cells): cell-permeable
Structure (SMILES): CC(C)(C)c1ccc2oc(-c3cc(O)c(-c4nc5c(CN(Cc6ccccn6)Cc6ccccn6)cccc5o4)cc3O)nc2c1 [Zinhbo-5]
association constant K12 / overall association constant Kass ([1]; 2:1 host-guest complex, fluorescence at 710 nm): 3.88×10^10 M^−2
association constant Kass2 ([1]; fluorescence at 710 nm): 121000 M⁻¹
association constant K11 / Kass1 ([1]; fluorescence intensity versus Zn^2+ concentration, 710 nm): 321000 M⁻¹
fluorescence inside living cells, probe only (Hela cells; 10 μM probe, 30 min, 37° C.): very weak fluorescence
cell viability in bright-field transmission image (Hela cells; cells treated with probe and Zn^2+): viable throughout the imaging experiments
toxicity to the cell culture (Hela cells; imaging conditions): primarily nontoxic
fluorescence in living cells after incubation with ZnCl2 (Hela cells; then ZnCl2 (10 μM), 30 min, 37° C.): much brighter
emission intensity after subsequent addition of TPEN (Hela cells; zinc chelator TPEN added after Zn^2+): reverted the emission intensity to that of the zinc-free system
distribution of labeled zinc-concentrated cells (zebrafish; 17 hpf, one hour treatment at room temperature): distributed throughout the embryos
distribution of labeled zinc-concentrated cells (zebrafish; 50 hpf and 72 hpf): mainly located in the nose and neuromasts of the lateral line system
labeling pattern in older larvae (zebrafish; 82 hpf): remained similar
labeling in lateral line structures, exogenous Zn^2+ treated vs untreated larvae (zebrafish; 82 hpf, Zn^2+ 20 μM): no obvious difference
labeling in larvae treated with TPEN (zebrafish; 82 hpf, zinc chelator TPEN): almost completely eliminated

Structure (SMILES): C=C[C@H]1C[N@@]2CC[C@H]1C[C@H]2[C@H](O)c1ccnc2ccc(OC)cc12 [quinine sulfate]
fluorescence quantum yield of standard [3]: 0.53
